Test results published in US20040162247A1, “Therapeutic agent or osteoporosis comprising an active ingredient of quercetin derivatives” (priority 2000, published 2004).

What was measured:
ovariectomized rats [1] = assay: Complete blood count in ovariectomized rats; assay type: in vivo, Female SD (Sprague-Dawley) rats; conditions: rat, in vivo
Experimental: (§1) When test agents were administered, for a certain period of time before and after administration, 1.5 ml of blood was sampled from tail vein using a catheter (B.D Co.: 24 G) and subjected to complete blood count (Coulter Co.: JT) and biochemical analyses of plasma (Crone Co.: Airon® 200). During autopsy, blood was sampled from caudal venae cavae and subjected to the analyses above. And then, each sample was frozen to store for measurement of trabecular bone area of femur and examination of internal organs.
Complete blood count which reflects the condition and abnormality of the body was measured to find out abnormality in test animals caused by administrtion of agents. That is, to find out changes in hematopoiesis of test rats, measured were red blood cell (RBC) count, concentration of hemoglobin (Hb) and hematocrit (Ht) of-blood samples obtained from the rats prior to operation and the rats 10 weeks after administrating agents following operation, and to find out changes in immune system such as inflammation and necrosis of tissues, measured were white blood cell count, lymphocyte count, monocyte count, and granulocyte count (see: Table 7).

ovariectomized rats [2] = assay: Trabecular bone area of lumbars in ovariectomized rats;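 as to Change Rate (%) of TBA of lumbars, of control group: control group rats were ovariectomized and are not the sham group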; assay type: in vivo, Female SD (Sprague-Dawley) rats; conditions: OVX rats, 9 weeks i.p. (E2 1 μg/kg/day; quercetin, genistein 10 mg/kg/day); for Change Rate (%) of TBA of lumbars, of control group: control group = 100
Experimental: (§2) Trabecular bone area (TBA) of lumbar and tibia removed from the rats of each group which was treated with various agents for 9 weeks were measured as follows: that is, using a digitalizer of quantitative image analysis system (Wild Leitz Co.), image of each trabecula was obtained on computer monitor by drawing a contour of the trabecula, and then, using a computer, calculated were average areas of trabeculae within a rectangle of 2×10^6 μm^2 area wherein the width is about ⅔ of the length of growth plate which located underneath of growth plate at proximity of tibia. Also, following the number of trabeculae within the rectangle were obtained, average area was multiplied by the number of trabeculae to obtain trabecular bone area of each sample bone, which was analyzed statistically (see: Table 5).
TBAs of lumbars removed from the animal treated with test agents for 9 weeks were measured employing the same method above (see: Table 6).

[3] = test system: human osteoblast-like cell line Saos-2; assay: Cell proliferation of Saos-2 cells, MTT method; assay type: cell-based; conditions: for MTT assay (% of control group): Saos-2, 3 days
Experimental: Saos-2 cell line which has similar properties to osteoblasts was obtained from Korean Cell Line Bank affiliated to the Cancer Research Institute of School of Medicine, Seoul National University.
Saos-2 cells were seeded in a RPMI 1640 medium (Gibco BRL, U.S.A.) supplemented with 10% (v/v) FBS, 100 unit/ml penicillin, 100 gg/ml streptomycin and grown to form a monolayer in an incubator at 37° C. under an environment of 5% (v/v) CO2 and saturated humidity. The culture was fed with fresh medium 2 to 3 times a week and subcultured once a week using 0.25% (w/v) trypsin.
Saos-2 cells were distributed into a 96-well plate (20,000 cells/well) and quercetin in 1% DMSO was added to a final concentration of 10-2 to 10^−9 mg/ml, 6 wells per each concentration. As a control group, cells without quercetin were used, and as a comparative group, the cells treated with various concentrations of genistein, being studied as a therapeutic agent for osteoporosis, were used. Cells were grown in an incubator at 37° C. for 3 days and incubated 4 more hours under the same condition after adding MTT (3-[4,5-dimethylthiazol-2-yl]-2,5-diphenyltetrazolium bromide, Triazolyl Blue) to a concentration of 0.05 mg/ml. Then, purple colored for-mazan formed in proportion to the number of viable cells was dissolved in DMSO and measured OD at 550 nm employing ELISA reader.
Cell proliferation rate (%) was evaluated by calculating the ratio of the OD of quercetin added well to the OD of control well, wherein, average value of ODs from 6 wells treated with the same concentration of quercetin was employed (see: Table 1).
cell proliferation rate (%)={(average value of OD at 550 nm of quercetin-treated wells—average value of OD at 550 nm of empty wells)/average value of OD at 550 nm of control wells}×100

[4] = test system: ALP activity in osteoblasts (Saos-2); assay: Alkaline phosphatase (ALP) activity in osteoblasts; assay type: cell-based, human; conditions: for ALP activity (% of control group): Saos-2, 3 days
Experimental: Since osteoblasts have cell specific alkaline phosphatase activity, the effect of quercetin of the invention on ALP activity in osteoblasts was evaluated as follows: the number of cells, concentration of tested agent, and culture condition were same as those used in MTT experiment of Example 1-2, and cells were harvested after 3 day-incubation. Genistein was used as a comparative agent. ALP activity was evaluated by analysing changes of OD at 405 nm result from hydrolysis of p-nitrophenylphosphate to p-nitrophenol and phosphate (see: Table 1).

ovariectomized rats [5] = assay: Trabecular bone area of tibia in ovariectomized rats;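 as to Change Rate (%) of TBA of tibia, of control group: control group rats were ovariectomized and are not the sham group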; assay type: in vivo, Female SD (Sprague-Dawley) rats; conditions: OVX rats, 9 weeks i.p. (E2 1 μg/kg/day; quercetin, genistein 10 mg/kg/day); for Change Rate (%) of TBA of tibia, of control group: control group = 100
Experimental: as §2

ovariectomized rats [6] = assay: Biochemical parameters in plasma of ovariectomized rats; assay type: in vivo, Female SD (Sprague-Dawley) rats; conditions: rat, in vivo
Experimental: as §1
Since blood reflects the condition of body, safety of quercetin in the body was evaluated by measuring biochemical parameters: that is, blood samples were obtained from the rat prior to operation, one week after operation, and 10 weeks after operation, and measured were levels of alkaline phosphatase (ALP), calcium, inorganic phosphate, blood urea nitrogen (BUN), creatinin, total cholesterol, HDL-cholesterol and LDL-cholesterol (see: Table 8).

Compound: O=c1c(O)c(-c2ccc(O)c(O)c2)oc2cc(O)cc(O)c12 [Quercetin, quercetin]
- Concentration of hemoglobin(Hb) (ovariectomized rats [1]): 16.00 ± 0.30 g/dL
- Granulocyte count (ovariectomized rats [1]): 2.80 ± 0.30 ×10^3 cells/μl
- Hematocrit(Ht) (ovariectomized rats [1]): 43.62 ± 0.83%
- Lymphocyte count (ovariectomized rats [1]): 16.78 ± 3.52 ×10^3 cells/μl
- Monocyte count (ovariectomized rats [1]): 0.65 ± 0.07 ×10^3 cells/μl
- Red blood cell(RBC) count (ovariectomized rats [1]): 7.29 ± 0.15 ×10^6 cells/μl
- White blood cell count (ovariectomized rats [1]): 20.28 ± 3.77 ×10^3 cells/μl
- White blood cell count, before versus after operation (in words) (ovariectomized rats [1]): did not show any changes
- TBA (trabecular bone area) of lumbars (ovariectomized rats [2]): 87.38 ± 4.53 ×10^4 μm^2
- Change Rate (%) of TBA of lumbars, of control group (ovariectomized rats [2]): 129.40 ± 6.71 %
- Change Rate (%) of TBA of lumbars, of control group (ovariectomized rats [2]; listed as quercetin): 129%
- Cell proliferation by MTT method versus control cells (in words) ([3]; Saos-2, 1×10^−9 to 1×10^−3 mg/ml): did not show any difference from the control cells
- MTT assay (% of control group) ([3]; 1 × 10^−2 mg/ml): 108.6 ± 2.2 % of control group
- MTT assay (% of control group) ([3]; 1 × 10^−2 mg/ml, listed as quercetin): 109 % of control group
- MTT assay (% of control group) ([3]; 1 × 10^−3 mg/ml): 98.3 ± 0.8 % of control group
- MTT assay (% of control group) ([3]; 1 × 10^−4 mg/ml): 96.5 ± 0.8 % of control group
- MTT assay (% of control group) ([3]; 1 × 10^−5 mg/ml): 95.8 ± 1.1 % of control group
- MTT assay (% of control group) ([3]; 1 × 10^−6 mg/ml): 96.0 ± 1.0 % of control group
- MTT assay (% of control group) ([3]; 1 × 10^−7 mg/ml): 98.6 ± 1.0 % of control group
- MTT assay (% of control group) ([3]; 1 × 10^−8 mg/ml): 93.9 ± 0.8 % of control group
- MTT assay (% of control group) ([3]; 1 × 10^−9 mg/ml): 93.1 ± 0.8 % of control group
- ALP activity (% of control group) ([4]; 1 × 10^−2 mg/ml): 106.1 ± 4.3 % of control group
- ALP activity (% of control group) ([4]; 1 × 10^−3 mg/ml): 107.3 ± 1.5 % of control group
- ALP activity (% of control group) ([4]; 1 × 10^−4 mg/ml): 113.5 ± 2.3 % of control group
- ALP activity (% of control group) ([4]; 1 × 10^−5 mg/ml): 116.5 ± 3.7 % of control group
- ALP activity (% of control group) ([4]; 1 × 10^−6 mg/ml): 127.2 ± 3.5 % of control group
- ALP activity (% of control group) ([4]; 1 × 10^−6 mg/ml, listed as quercetin): 127 % of control group
- ALP activity (% of control group) ([4]; 1 × 10^−7 mg/ml): 101.2 ± 3.1 % of control group
- ALP activity (% of control group) ([4]; 1 × 10^−8 mg/ml): 104.4 ± 3.9 % of control group
- ALP activity (% of control group) ([4]; 1 × 10^−9 mg/ml): 98.1 ± 0.0 % of control group
- ALP activation effect relative to genistein ([4]; maximum at 1×10^−6 mg/ml (quercetin) versus 1×10^−4 mg/ml (genistein)): about 100 fold
- TBA (trabecular bone area) of tibia (ovariectomized rats [5]): 55.52 ± 7.68 ×10^4 μm^2
- Change Rate (%) of TBA of tibia, of control group (ovariectomized rats [5]): 160.34 ± 22.17 %
- Change Rate (%) of TBA of tibia, of control group (ovariectomized rats [5]; listed as quercetin): 160%
- Concentration of ALP in plasma (ovariectomized rats [6]): 232.83 ± 20.27 U/dL
- Concentration of HDL-cholesterol in plasma (ovariectomized rats [6]): 53.38 ± 3.14 mg/dL
- Concentration of LDL-cholesterol in plasma (ovariectomized rats [6]): 24.17 ± 3.13 mg/dL
- Concentration of blood urea nitrogen (BUN) (ovariectomized rats [6]): 17.05 ± 0.60 mg/dL
- Concentration of calcium in plasma (ovariectomized rats [6]): 10.73 ± 0.48 mg/dL
- Concentration of creatinin in plasma (ovariectomized rats [6]): 0.57 ± 0.05 mg/dL
- Concentration of inorganic phosphate in plasma (ovariectomized rats [6]): 6.79 ± 0.66 mg/dL
- Concentration of total cholesterol in plasma (ovariectomized rats [6]): 77.55 ± 5.13 mg/dL
